Experimental data from US10065990B2, “Cyclic peptide compound, and preparation method, pharmaceutical composition and use thereof” (HANGZHOU GUANYU BIO-MEDICAL CO., LTD, priority 2013, dated 2018).
Where two headings read alike, the source gives them in different places.

Experiments:
[1] = test system: U937 (human leukemia cells); assay: MTT cancer cell growth inhibition; assay type: cell-based; conditions: Homo sapiens, U-937, 72 h, read-out: GI50 U93
Source text: (§1) MTT assay principle is yellow MTT can penetrate membrane into the cell, succinic dehydrogenase of the mitochondria in living cells can make exogenous MTT reduction of insoluble in water of blue-violet acicular formazan for crystallization and deposition in the cell, crystallization can be dissolved dimethyl sulfoxide (DMSO) solution, detected its absorbance at 490 nm/570 nm wavelength by enzyme-linked immunosorbent assay, which can reflect the number of cells.
(§2) Using DMEM+10% FBS culture medium or using 1640+10% FBS culture, respectively.
(§3) a) Cells were seeded in 96-well plates with the inoculation of 1500/well, 190 μl/hole, 37° C., 5% of CO2 incubator overnight;
(§4) b) The next day each well was added 10 μl of different drugs. The final concentration of drug was 10^−5˜10^−10M, three parallel holes; 37° C., 5% CO2 culture incubator for 72 hours incubation;
(§5) c) Per well was added 20 μl 5 mg/ml of MTT, 37° C., 5% CO2 culture incubator for 4 hours incubation;
(§6) d) The supernatant was discarded. Each well was added 100 μl of DMSO and oscillation;
(§7) e) 570 nm readings. Calculate cell viability. GI50 calculation based on the results.

[2] = test system: MDA-MB-231 (breast cancer cells); assay: MTT cancer cell growth inhibition; assay type: cell-based
Source text: as §1, §2, §3, §4, §5, §6, §7

[3] = test system: MOLT-4 (human acute lymphoblastic leukemia cells); assay: MTT cancer cell growth inhibition; assay type: cell-based; conditions: Homo sapiens, MOLT-4, 72 h, read-out: GI50 Mol
Source text: as §1, §2, §3, §4, §5, §6, §7

[4] = test system: K562 (human leukemia cells); assay: MTT cancer cell growth inhibition; assay type: cell-based; conditions: read-out: GI50 K562
Source text: as §1, §2, §3, §4, §5, §6, §7

[5] = test system: KBM5-T315I (human chronic myelogenous leukemia); assay: MTT cancer cell growth inhibition; assay type: cell-based; conditions: Homo sapiens, 72 h, read-out: GI50 KBM5-T315I
Source text: as §1, §2, §3, §4, §5, §6, §7

[6] = test system: BGC-823 (human gastric cancer cells); assay: MTT cancer cell growth inhibition; assay type: cell-based; conditions: read-out: GI50 BG
Source text: as §1, §2, §3, §4, §5, §6, §7

[7] = test system: PANC-1 (Pac-1, human pancreatic cancer cells); assay: MTT cancer cell growth inhibition; assay type: cell-based; conditions: Homo sapiens, PANC-1, 72 h, read-out: GI50 PAN
Source text: as §1, §2, §3, §4, §5, §6, §7

[8] = test system: HT1080 (human fibrosarcoma cells); assay: MTT cancer cell growth inhibition; assay type: cell-based; conditions: Homo sapiens, HT-1080, 72 h, read-out: GI50 HT1
Source text: as §1, §2, §3, §4, §5, §6, §7

[9] = test system: A549 (human lung cancer cells); assay: MTT cancer cell growth inhibition; assay type: cell-based; conditions: Homo sapiens, A549, 72 h, read-out: GI50 A54
Source text: as §1, §2, §3, §4, §5, §6, §7

[10] = test system: lncap (prostate cancer cells); assay: MTT cancer cell growth inhibition; assay type: cell-based; conditions: read-out: GI50 lnca
Source text: as §1, §2, §3, §4, §5, §6, §7

[11] = test system: HCC827 (human non-small cell lung cancer cells); assay: MTT cancer cell growth inhibition; assay type: cell-based; conditions: Homo sapiens, HCC827, 72 h, read-out: GI50 HCC827
Source text: as §1, §2, §3, §4, §5, §6, §7

[12] = test system: N-87 (human gastric cancer cells); assay: MTT cancer cell growth inhibition; assay type: cell-based; conditions: read-out: GI50 N-87
Source text: as §1, §2, §3, §4, §5, §6, §7

[13] = test system: H1975 (non-small cell lung adenocarcinoma); assay: MTT cancer cell growth inhibition; assay type: cell-based; conditions: Homo sapiens, NCI-H1975, 72 h, read-out: GI50 H1975
Source text: as §1, §2, §3, §4, §5, §6, §7

[14] = test system: KBM-5 (human chronic myelogenous leukemia); assay: MTT cancer cell growth inhibition; assay type: cell-based; conditions: read-out: GI50 KBM-5
Source text: as §1, §2, §3, §4, §5, §6, §7

[15] = test system: Hela (human cervical cancer cells); assay: MTT cancer cell growth inhibition; assay type: cell-based; conditions: read-out: GI50 Hela
Source text: as §1, §2, §3, §4, §5, §6, §7

[16] = test system: DU145 (human prostate cancer cells); assay: MTT cancer cell growth inhibition; assay type: cell-based; conditions: Homo sapiens, DU-145, 72 h, read-out: GI50 Du1
Source text: as §1, §2, §3, §4, §5, §6, §7

[17] = test system: Huh-7 (human hepatoma cells); assay: MTT cancer cell growth inhibition; assay type: cell-based; conditions: Homo sapiens, Huh-7, 72 h, read-out: GI50 Huh-7
Source text: as §1, §2, §3, §4, §5, §6, §7

[18] = test system: Bel-7402 (human hepatoma cells); assay: MTT cancer cell growth inhibition; assay type: cell-based; conditions: Homo sapiens, Bel-7402, 72 h, read-out: GI50 Bel-7402
Source text: as §1, §2, §3, §4, §5, §6, §7

[19] = test system: SGC-7901 (human gastric cancer cells); assay: MTT cancer cell growth inhibition; assay type: cell-based; conditions: read-out: GI50 SGC-7901
Source text: as §1, §2, §3, §4, §5, §6, §7

HDAC7 = molecular target: T1, HDAC7 (Homo sapiens, UniProt Q8WUI4); assay: HDAC biochemical activity measurement (fluorescent substrate deacetylation);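 further: fluorogenic deacetylation assay using acetyl-lysine substrate at 20 µM, enzyme and compound incubated 30 min at 37 °C, then developer added, fluorescence read at 360/460 nm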; conditions: HDAC7; 37° C. 30 minutes
T1 sequence (Q8WUI4 1-952): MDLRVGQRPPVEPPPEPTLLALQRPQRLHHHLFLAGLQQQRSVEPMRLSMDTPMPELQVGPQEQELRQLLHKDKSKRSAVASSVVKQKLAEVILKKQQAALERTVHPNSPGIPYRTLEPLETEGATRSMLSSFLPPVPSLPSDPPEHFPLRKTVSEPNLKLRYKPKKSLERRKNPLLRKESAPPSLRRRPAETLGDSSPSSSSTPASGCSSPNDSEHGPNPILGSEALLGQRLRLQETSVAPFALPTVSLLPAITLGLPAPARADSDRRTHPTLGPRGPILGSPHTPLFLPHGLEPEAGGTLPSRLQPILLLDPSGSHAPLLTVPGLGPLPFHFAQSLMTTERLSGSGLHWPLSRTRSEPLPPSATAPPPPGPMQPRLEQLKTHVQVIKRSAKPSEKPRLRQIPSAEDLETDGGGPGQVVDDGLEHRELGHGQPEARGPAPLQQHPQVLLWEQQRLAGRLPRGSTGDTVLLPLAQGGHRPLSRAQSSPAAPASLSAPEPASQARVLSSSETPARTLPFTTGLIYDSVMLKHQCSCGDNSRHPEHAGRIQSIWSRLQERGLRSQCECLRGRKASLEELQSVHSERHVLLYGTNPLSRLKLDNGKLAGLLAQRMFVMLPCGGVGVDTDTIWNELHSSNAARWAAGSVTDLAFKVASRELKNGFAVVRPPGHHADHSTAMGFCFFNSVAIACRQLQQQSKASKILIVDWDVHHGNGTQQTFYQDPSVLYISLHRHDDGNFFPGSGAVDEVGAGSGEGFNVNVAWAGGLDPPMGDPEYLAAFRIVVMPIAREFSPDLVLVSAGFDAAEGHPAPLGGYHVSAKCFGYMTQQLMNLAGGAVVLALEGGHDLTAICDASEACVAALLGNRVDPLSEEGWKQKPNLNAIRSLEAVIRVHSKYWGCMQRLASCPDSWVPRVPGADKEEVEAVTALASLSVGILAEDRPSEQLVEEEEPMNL
Method: The chemical activity of the compound is determined according to the degree of deacetylation inhibition of the HDAC enzyme. This experiment measured the degree of deacetylation related to tumor proliferation and metastasis of HDAC1, HDAC2, HDAC3, HDAC8, HDAC11 five subtypes HDAC enzymes. After the substrate containing an acetylated lysine side chain and HDAC enzyme are labeled with a fluorescent label, the fluorescent substrate is de acetyl. The fluorescent labeled substrate is cleaved by the enzyme, and the fluorescent substance is released, which generates 460 nm emission light under the excitation of 360 nm light.
HDAC substrate was diluted with reaction buffer to 200M (reaction concentration of 20M), the HDAC enzyme was diluted to the appropriate concentration, then added different concentrations of the test compounds and acted at 37° C. 30 minutes, and then added the same volume of 2-times concentration substrate developing solution (developer), incubated at room temperature for 15 minutes. Finally, the last reading measured with a microplate plate reader, excitation light was 360 nm, the emitted light was 460 nm, data processing software was Prime 4, and the results are shown in Table 1.

[20] = test system: MCF-7 (human breast cancer cells); assay: MTT cancer cell growth inhibition; assay type: cell-based; conditions: Homo sapiens, MCF7, 72 h, MCF-7 cells, 72 hours incubation, read-out: GI50 MCF
Source text: as §1, §2, §3, §4, §5, §6, §7

[21] = U937 cells, MTT, 72 hours incubation
[22] = MOLT-4 cells, MTT, 72 hours incubation
[23] = MTT, 72 hours incubation, KBM5-T315I cells
[24] = PANC-1 cells, MTT, 72 hours incubation
[25] = HT1080 cells, MTT, 72 hours incubation
[26] = A549 cells, MTT, 72 hours incubation
[27] = MTT, 72 hours incubation, HCC827 cells
[28] = MTT, 72 hours incubation, H1975 cells
[29] = DU145 cells, MTT, 72 hours incubation
[30] = MTT, 72 hours incubation, Huh-7 cells
[31] = MTT, 72 hours incubation, Bel-7402 cells

O=C(CCCCCCC(=O)Nc1ccccc1)NO [SAHA, suberoylanilide hydroxamic acid, reference compound]
GI50 [1]: 2350 nM
GI50 ([2]; Homo sapiens, MDA-MB-231, 72 h, read-out: GI50 MDA-MB-231): 22500 nM
GI50 [3]: 10000 nM
GI50 ([4]; Homo sapiens, K562, 72 h): 10100 nM
GI50 [5]: 86700 nM
GI50 ([6]; Homo sapiens, BGC-823, 72 h): 5230 nM
GI50 [7]: 7620 nM
GI50 [8]: 3970 nM
GI50 [9]: 8530 nM
GI50 ([10]; Homo sapiens, LNCaP, 72 h): 4610 nM
GI50 [11]: 16700 nM
GI50 ([12]; Homo sapiens, 72 h): 13200 nM
GI50 [13]: 15200 nM
GI50 ([14]; Homo sapiens, KBM5, 72 h): 11200 nM
GI50 ([15]; Homo sapiens, HeLa, 72 h): 30.2 µM
GI50 [16]: 15200 nM
GI50 [17]: 18300 nM
GI50 [18]: 12700 nM
GI50 ([19]; Homo sapiens, SGC-7901, 72 h): 12500 nM
IC50 HDAC7 (HDAC7): no activity

C/C=C1\NC(=O)c2cc(SC)cc(n2)CNC(=O)C[C@@H](/C=C/CCSC(C)=O)OC(=O)[C@H](C)NC1=O [Compound 184]
GI50 [1, 21]: 30 nM
GI50 ([2]; read-out: GI50 MDA-MB-231, MTT, 72 hours incubation, MDA-MB-231 cells): 74 nM
GI50 [3, 22]: 30 nM
GI50 ([4]; MTT, 72 hours incubation, K562 cells): 23 nM
GI50 [5, 23]: 43 nM
GI50 ([6]; BGC-823 cells, MTT, 72 hours incubation): 50 nM
GI50 [7, 24]: 60 nM
GI50 [8, 25]: 80 nM
GI50 [9, 26]: 110 nM
GI50 ([10]; lncap cells, MTT, 72 hours incubation): 20 nM
GI50 [11, 27]: 62 nM
GI50 ([12]; MTT, 72 hours incubation, N-87 cells): 42 nM
GI50 [13, 28]: 58 nM
GI50 ([14]; MTT, 72 hours incubation, KBM-5 cells): 78 nM
GI50 ([15]; Hela cells, MTT, 72 hours incubation): 0.02 µM
GI50 [16, 29]: 60 nM
GI50 [17, 30]: 38 nM
GI50 [18, 31]: 56 nM
GI50 ([19]; MTT, 72 hours incubation, SGC-7901 cells): 11 nM
IC50 HDAC7 (HDAC7): no activity

C=C1NC(=O)c2ccc(SC)c(n2)CNC(=O)C[C@@H](/C=C/CCSC(C)=O)OC(=O)[C@H](C(C)C)NC1=O [Compound 206]
GI50 [1, 21]: 60 nM
GI50 ([2]; Homo sapiens, MDA-MB-231, 72 h, read-out: GI50 MDA-MB-231, MTT, 72 hours incubation, MDA-MB-231 cells): 76 nM
GI50 [3, 22]: 20 nM
GI50 [20]: 30 nM
GI50 ([4]; Homo sapiens, K562, 72 h, MTT, 72 hours incubation, K562 cells): 61 nM
GI50 [5, 23]: 39 nM
GI50 ([6]; Homo sapiens, BGC-823, 72 h, BGC-823 cells, MTT, 72 hours incubation): 20 nM
GI50 [7, 24]: 20 nM
GI50 [8, 25]: 10 nM
GI50 [9, 26]: 50 nM
GI50 ([10]; Homo sapiens, LNCaP, 72 h, lncap cells, MTT, 72 hours incubation): 70 nM
GI50 [11, 27]: 12 nM
GI50 ([12]; Homo sapiens, 72 h, MTT, 72 hours incubation, N-87 cells): 97 nM
GI50 [13, 28]: 75 nM
GI50 ([14]; Homo sapiens, KBM5, 72 h, MTT, 72 hours incubation, KBM-5 cells): 27 nM
GI50 [16, 29]: 10 nM
GI50 [17, 30]: 39 nM
GI50 [18, 31]: 48 nM
GI50 ([19]; Homo sapiens, SGC-7901, 72 h, MTT, 72 hours incubation, SGC-7901 cells): 82 nM
IC50 HDAC7 (HDAC7): no activity
